Experimental data taken from PubChem BioAssay AID1205 (EPA DSSTox, 2008).
Calls of active or inactive are those of the source.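 How the source made its calls: active means tumour findings in long-term animal cancer tests in more than one sex, species or organ; inactive means no tumour finding and more than one negative test.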

Experiment: DSSTox (CPDBAS) Carcinogenic Potency Database Summary MultiCellCall Results
Conditions: animal carcinogenicity bioassays, multi-cell call summary
Description: The Carcinogenic Potency Database (CPDB) is a unique and widely used international resource of the results of over 6500 chronic, long-term animal cancer tests on over 1500 chemical substances. The CPDB provides easy access to the bioassay literature, with qualitative and quantitative analyses of both positive and negative experiments that have been published over the past 50 years in the general literature and by the National Cancer Institute/National Toxicology Program. The CPDB standardizes the diverse literature of cancer bioassays that vary widely in protocol, histopathological examination and nomenclature, and in the published author's choices of what information to provide in their papers. Results are reported in the CPDB for tests in rats, mice, hamsters, dogs, and nonhuman primates, and are based on the most positive result among all experiments for each sex-species. The DSSTox CPDBAS (all species) file incorporates data from the CPDB Summary Tables for the full list of over 1500 chemical substances tested in at least one species. A summary MultiCellCall, based on experimental bioassay results of one or more species, is provided in the DSSTox CPDBAS file (see Source URL) for more than 1150 chemical substances.
Associated TD50 values and tumor site details for the relevant species/sex experiment supporting the overall CPDBAS MultiSiteCall are provided in the full DSSTox CPDBAS file (see Comment) and the corresponding CPDBAS Species Bioassay in PubChem. ActivityScore is computed as follows: multispecies=50, multisex=30, multisite=20, with combination scores computed as sums of these values, e.g. multispecies+multisite=70.
For `CC(O)CCl` (stereo unspecified), the outcome was “inactive; multisex inactive; multispecies inactive”. In the case of `COc1cc(-c2ccc(N=C=O)c(OC)c2)ccc1N=C=O`, the outcome was “active; multisite active; multisex active”. For `S=c1nc[nH]c2nc[nH]c12`, the outcome was “inactive; multisex inactive”. In the case of `C[C@H]1CCCC(=O)CCC/C=C/c2cc(O)cc(O)c2C(=O)O1`, the outcome was “active; multisite active; multisex active”. With `ClC1=C(Cl)[C@@]2(Cl)[C@@H]3[C@@H](Cl)[C@H](Cl)C[C@@H]3C1(Cl)C2(Cl)Cl` the outcome was “active; multisex active”. In the case of `CCO`, the outcome was “active; multisite active”. In the case of `CN(C)CCOC(c1ccccc1)c1ccccc1`, the outcome was “inactive; multisex inactive; multispecies inactive”. In the case of `CC(C)(C)c1cc([N+](=O)[O-])cc([N+](=O)[O-])c1OS(C)(=O)=O`, the outcome was “inactive; multisex inactive”. For `C=CCN(CC(C)O)N=O` (stereo unspecified), the outcome was “active; multisite active”. For `CC(N)Cc1ccccc1` (stereo unspecified), the outcome was “inactive; multisex inactive; multispecies inactive”. In the case of `O=NN1CCCCC1c1cccnc1` (stereo unspecified), the outcome was “active; multisex active”. With `O=C(O)COc1ccc(Cl)cc1Cl` the outcome was “inactive; multisex inactive; multispecies inactive”. With `O=S(=O)(Oc1ccc(Cl)cc1Cl)c1ccccc1` the outcome was “inactive; multisex inactive”. In the case of `Cc1[nH]cnc1CSCCN=C(NC#N)N(C)N=O`, the outcome was “inactive; multisex inactive; multispecies inactive”. For `NC(N)=NC(N)=NCCc1ccccc1`, the outcome was “inactive; multisex inactive; multispecies inactive”. For `Nc1ccc(Sc2ccc(N)cc2)cc1`, the outcome was “active; multisite active; multisex active; multispecies active”. In the case of `C=Cc1ccccc1`, the outcome was “active; multisite active; multisex active; multispecies active”. With `COc1ccc(CN(CCN(C)C)c2ccccn2)cc1` the outcome was “active; multisex active”. With `COc1cc2c(c3c1c(=O)c1ccccc1n3C)C=CC(C)(C)O2` the outcome was “active; multisite active; multisex active”. With `Cc1ccccc1N` the outcome was “active; multisite active; multisex active; multispecies active”. For `Clc1ccc2c(c1)Oc1ccc(Cl)cc1O2`, the outcome was “inactive; multisex inactive; multispecies inactive”. For `Cc1ccc2c(c1[N+](=O)[O-])C(=O)c1ccccc1C2=O`, the outcome was “active; multisite active; multisex active; multispecies active”. For `O=P(=O)O`, the outcome was “inactive; multisex inactive”. With `O=C(O)c1[nH]n(-c2ccc(S(=O)(=O)O)cc2)c(=O)c1N=Nc1ccc(S(=O)(=O)O)cc1` the outcome was “inactive; multisex inactive; multispecies inactive”. In the case of `COC(=O)NN`, the outcome was “inactive; multisex inactive”. For `CN(C)C(=S)[S][Pb][S]C(=S)N(C)C`, the outcome was “inactive; multisex inactive; multispecies inactive”. With `O=C1O[C@H]([C@@H](O)CO)C(O)=C1O` the outcome was “inactive; multisex inactive; multispecies inactive”. In the case of `O=NN1CCSCC1`, the outcome was “active; multisite active; multisex active”. In the case of `CCCCC(CC)COC(=O)c1ccccc1C(=O)OCC(CC)CCCC` (stereo unspecified), the outcome was “active; multisex active; multispecies active”. With `CC(=O)O[C@H]1CC[C@@]2(C)C(=CC[C@@H]3[C@@H]2CC[C@]2(C)C(=O)CC[C@@H]32)C1` the outcome was “active; multisex active”. With `c1ccc2cc(Nc3ccc(Nc4ccc5ccccc5c4)cc3)ccc2c1` the outcome was “inactive; multisex inactive”. With `Nc1cccc2c(N)cccc12` the outcome was “active; multisite active; multisex active; multispecies active”. With `CC(=O)Oc1ccccc1C(=O)O` the outcome was “inactive; multisex inactive; multispecies inactive”. With `CCN(C)N=O` the outcome was “active; multisite active”. In the case of `Nc1ccc(Cc2ccc(N)c(Cl)c2)cc1Cl`, the outcome was “active; multisite active; multisex active; multispecies active”. With `COc1cc2c(c3oc(=O)c4c(c13)CCC4=O)C1C=COC1O2` (stereo unspecified) the outcome was “active; multisite active; multisex active; multispecies active”. With `C/[N+]([O-])=N/CO[C@@H]1O[C@H](CO)[C@@H](O)[C@H](O)[C@H]1O` the outcome was “active; multisite active; multispecies active”. With `Cc1cccc(C)c1NC(=O)CN1CCCC1=O` the outcome was “inactive; multisex inactive; multispecies inactive”. With `Nc1ccc(Cc2ccc(N)cc2)cc1` the outcome was “active; multisite active; multisex active; multispecies active”. With `C=CCCl` the outcome was “inactive; multisex inactive”. For `CC(COc1ccc(C(C)(C)C)cc1)OS(=O)OCCCl` (stereo unspecified), the outcome was “active; multispecies active”. For `CCNC(=S)NCC`, the outcome was “active; multisex active”. In the case of `COC(=O)C1=CCCN(C)C1`, the outcome was “active; multisite active; multisex active”. For `Cc1cccc2cccnc12`, the outcome was “inactive; multisex inactive”. For `CNNCc1ccc(C(=O)NC(C)C)cc1`, the outcome was “active; multisite active; multisex active; multispecies active”. With `Oc1ccc(-c2ccccc2)cc1` the outcome was “inactive; multisex inactive”. For `C=C/C1=C/[C@H](C)[C@](C)(OC(C)=O)C(=O)OCC2=CC[N+]3(C)CC[C@@H](OC1=O)C23[O-]` (stereo partly specified), the outcome was “active; multisite active”. For `CC1=C(C)C(=O)C(C(CCCCCC(=O)O)c2ccccc2)=C(C)C1=O` (stereo unspecified), the outcome was “inactive; multisex inactive”. In the case of `C[N+](C)(C)CCCl`, the outcome was “inactive; multisex inactive; multispecies inactive”. In the case of `NC(=O)Cc1cccc2ccccc12`, the outcome was “inactive; multisex inactive”. For `O=NN1CCNCC1`, the outcome was “active; multisite active; multisex active”. With `Cc1cnc2ccc3c(nc(N)n3C)c2n1` the outcome was “active; multisite active; multisex active; multispecies active”. For `CC(Cl)(Cl)Cl`, the outcome was “inactive; multisex inactive; multispecies inactive”. In the case of `C=Cc1cccc[n+]1[O-]`, the outcome was “inactive; multispecies inactive”. In the case of `Cc1cc(O)c(C(C)(C)C)cc1Sc1cc(C(C)(C)C)c(O)cc1C`, the outcome was “inactive; multisex inactive; multispecies inactive”. For `Nc1nc(-c2ccc([N+](=O)[O-])o2)cs1`, the outcome was “active; multisite active; multispecies active”. With `Cc1c(N(C)CS(=O)(=O)O)c(=O)n(-c2ccccc2)n1C` the outcome was “active; multisex active”. With `COC(=O)C1=C(C)NC(C)=C(C(=O)OCC(C)(C)CN(C)Cc2ccccc2)C1c1cc([N+](=O)[O-])ccc1F` (stereo unspecified) the outcome was “inactive; multisex inactive”. With `CC(COc1ccccc1)N(CCCl)Cc1ccccc1` (stereo unspecified) the outcome was “active; multisex active; multispecies active”. With `C[C@H]([C@H](O)CCC(C)(C)O)[C@H]1CC[C@@]2(O)C3=CC(=O)[C@@H]4C[C@@H](O)[C@@H](O)C[C@]4(C)[C@H]3CC[C@]12C` the outcome was “active; multisite active; multisex active”. For `O=c1ccc(=O)[nH][nH]1`, the outcome was “inactive; multisex inactive; multispecies inactive”. For `CC(Cl)CCl` (stereo unspecified), the outcome was “active; multisex active”. In the case of `CCCCC/C=N/N(C)C=O`, the outcome was “active; multisite active; multisex active”. For `NC(=O)NC1NC(=O)NC1=O` (stereo unspecified), the outcome was “inactive; multisex inactive”. With `ClC/C=C/CCl` the outcome was “active; multisex active”. For `COc1ccc(O)c(C(C)(C)C)c1`, the outcome was “active; multisex active; multispecies active”. For `BrC(Br)Br`, the outcome was “active; multisex active”. With `CC(=O)Nc1ccc(CC(=O)O)cc1` the outcome was “inactive; multisex inactive; multispecies inactive”. For `C=COC(C)=O`, the outcome was “active; multisite active; multisex active; multispecies active”. In the case of `C[C@@H]1C/C=C/C=C/C=C/C=C/[C@H](O[C@@H]2O[C@H](C)[C@@H](O)[C@H](N)[C@@H]2O)C[C@@H]2O[C@](O)(C[C@@H](O)C[C@H]3O[C@@H]3/C=C/C(=O)O1)C[C@H](O)[C@H]2C(=O)O`, the outcome was “inactive; multisex inactive”. In the case of `CN(CC(O)CO)N=O` (stereo unspecified), the outcome was “active; multisite active; multispecies active”.
